Laboratory results from patent US7056928B2, “Pyrimidine derivatives as selective inhibitors of COX-2” (Glaxo Group Limited, priority 2001, dated 2006).
pIC50: −log10 of the molar value.

What was measured:
[1] = molecular target: COX-1 (Homo sapiens, UniProt P23219); assay: Microsomal assay, inhibition of COX-1; type: biochemical
Description: (§1) Inhibitory activity against microsomal h-COX2 was assessed against a microsomal preparation from baculovirus infected SF9 cells. An aliquot of microsomal preparation was thawed slowly on ice and a 1/40,000 dilution prepared from it into the assay buffer (sterile water, degassed with argon containing 100 mM HEPES (pH 7.4), 10 mM EDTA (pH7.4), 1 mM phenol, 1 mM reduced glutathione, 20 mg/ml gelatin and 0.001 mM Hematin). Once diluted the enzyme solution was then sonicated for 5 seconds (Branson sonicator, setting 4, 1 cm tip) to ensure a homogeneous suspension. 155 μl enzyme solution was then added to each well of a 96-well microtitre plate containing either […] test compound (40×required test concentration) or 5 μl DMSO for controls. Plates were then mixed and incubated at room temperature for 1 hour. Following the incubation period, 40 μl of 0.5 μM arachidonic acid was added to each well to give a final concentration of 0.1 μM. Plates were then mixed and incubated for exactly 10 minutes (room temperature) prior to addition of 25 μl 1M HCl (hydrochloric acid) to each well to stop the reaction. 25 μl of 1M NaOH (sodium hydroxide) was then added to each well to neutralise the solution prior to determination of PGE2 levels by enzyme immunoassay (EIA).
(§2) The following IC50 value for inhibition of COX-2 and COX-1 were obtained from the microsomal assay for compounds of the invention: […]

[2] = molecular target: T1, microsomal h-COX2 (Homo sapiens, UniProt P35354); assay: Microsomal assay, inhibition of h-COX2; type: biochemical; conditions: microsomal preparation from baculovirus infected SF9 cells; PGE2 by EIA; read-out: COX-2: IC50
T1 construct: made in house; host or cells: baculovirus infected SF9 cells (microsomal preparation)
T1 sequence (P35354 18-604): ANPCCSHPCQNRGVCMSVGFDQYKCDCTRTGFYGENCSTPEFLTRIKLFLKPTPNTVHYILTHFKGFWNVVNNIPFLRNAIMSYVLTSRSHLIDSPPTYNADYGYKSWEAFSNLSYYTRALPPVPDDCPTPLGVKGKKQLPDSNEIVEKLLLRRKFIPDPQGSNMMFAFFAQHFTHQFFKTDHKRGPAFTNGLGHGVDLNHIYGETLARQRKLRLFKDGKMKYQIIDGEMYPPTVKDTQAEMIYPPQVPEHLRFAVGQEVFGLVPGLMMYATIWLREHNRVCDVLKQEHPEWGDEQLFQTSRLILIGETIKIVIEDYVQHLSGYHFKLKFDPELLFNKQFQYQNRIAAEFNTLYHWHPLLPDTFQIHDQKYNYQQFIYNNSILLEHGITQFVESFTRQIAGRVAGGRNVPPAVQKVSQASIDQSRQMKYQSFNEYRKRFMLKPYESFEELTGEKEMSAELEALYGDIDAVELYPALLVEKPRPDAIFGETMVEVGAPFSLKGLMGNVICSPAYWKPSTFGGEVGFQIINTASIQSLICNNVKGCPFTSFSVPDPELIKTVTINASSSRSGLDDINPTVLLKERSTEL
Description: as §1, §2

Sequence of COX-1 (P23219 24-599): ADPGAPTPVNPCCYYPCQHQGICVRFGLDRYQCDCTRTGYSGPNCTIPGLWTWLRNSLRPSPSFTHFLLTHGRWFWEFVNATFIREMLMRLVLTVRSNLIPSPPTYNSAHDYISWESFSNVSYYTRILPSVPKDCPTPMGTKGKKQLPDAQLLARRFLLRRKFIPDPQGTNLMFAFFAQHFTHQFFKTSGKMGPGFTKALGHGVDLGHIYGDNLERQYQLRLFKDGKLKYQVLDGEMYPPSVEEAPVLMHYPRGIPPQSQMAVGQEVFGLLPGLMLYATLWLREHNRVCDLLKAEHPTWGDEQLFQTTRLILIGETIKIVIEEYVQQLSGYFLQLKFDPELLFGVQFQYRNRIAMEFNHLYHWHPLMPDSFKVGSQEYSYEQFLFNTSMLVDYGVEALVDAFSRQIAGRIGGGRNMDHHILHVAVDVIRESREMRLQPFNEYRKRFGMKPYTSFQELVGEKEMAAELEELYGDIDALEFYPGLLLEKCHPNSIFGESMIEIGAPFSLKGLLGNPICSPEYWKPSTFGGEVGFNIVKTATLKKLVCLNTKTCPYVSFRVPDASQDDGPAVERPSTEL

Q: With CS(=O)(=O)c1ccc(-c2cc(CF)nc(NCc3ccccc3)n2)cc1 [Example 1, 4-[4-(Methylsulfonyl)phenyl]-N-(Phenylmethyl)-6(fluoromethyl)pyrimidin-2-amine] as the compound, how does the pIC50 [1] read?
A: Its pIC50 is 4.75.

Q: And the pIC50 [2]?
A: The pIC50 was 7.66.
